Test results taken from US20260191927A1, “FORMULATION OF THERAPEUTIC AGENTS FOR IMPROVED PERMEATION” (priority 2023, published 2026).

Tests used:
[1] = Critical micelle concentration (CMC) of bile salts; format: physicochemical; settings: approximate values; critical micellular concentration
Description: In some embodiments, a bile acid or salt thereof of the disclosure is characterized by a critical micelle concentration (CMC). In some embodiments, the bile acid or salt thereof aggregates and/or forms micelles at a concentration above the CMC. […] In some embodiments, the method comprises potentiometry, spectrophotometry, nuclear magnetic resonance, viscosimetry, turbidimetry, microcalorimetry, refractometry, conductimetry, cholesterol solubilization, bilirubin monoglucuronide solubilization, dye solubilization, fluorescence, capillary electrophoresis, reverse phase HPLC, freezing point depression, surface tension, and/or light scattering. In some embodiments, the CMC value is an average of at least 3-50 replicates measured by a single technique (e.g., 3-50 replicates measured by potentiometry, 3-50 replicates measured by spectrophotometry, or 3-50 replicates measured by light scattering). In some embodiments, the CMC value is an average of replicates measured by more than one technique, wherein at least 3, 4, 5, 6, 7, 8, 9, or 10 replicates are measured per technique (e.g., an average of (i) at least 3, 4, 5, 6, 7, 8, 9, or 10 replicates measured by potentiometry, (ii) at least 3, 4, 5, 6, 7, 8, 9, or 10 replicates measured by spectrophotometry, (iii) at least 3, 4, 5, 6, 7, 8, 9, or 10 replicates measured by light scattering, (iv) replicates from any pair-wise combination of (i)-(iii), or (v) replicates from a combination of (i)-(iii)).
The bile acids tested in the formulations are identified in Table 2. The bile acids selected for testing vary in the number of hydroxyl groups, stereochemistry of hydroxyl groups, and conjugation at terminal acid.

[2] = tested on: porcine ex vivo intestinal tissue; experiment: GI-ORIS ex vivo intestinal permeation assay
Description: (§1) A custom device confines larger tissue explants into individual compartments with donor and receiver chambers that face the apical and basolateral faces of the intestinal tissue, respectively. Porcine tissue was dissected as previously described from freshly harvested gastrointestinal tracts and jejunal segments were stored in calcium-free Krebs buffer at 4° C. for 16 hours prior to mounting between the receiver and donor compartments of a GI-ORIS device. Receiver compartments were filled with 150 μL of either 5% Bovine Serum Albumin (for Vancomycin) or 0.1% Ovalbumin (for Calcitonin, Insulin, Semaglutide) solutions prior to tissue mounting. […]
(§2) Vancomycin in receiver fluid samples was detected using LC-TOF. […] Quantification was performed relative to standard curves prepared in receiver fluid with no exposure to peptide.
(§3) Semaglutide in receiver fluid samples was detected using LC-QQQ. […] Quantification was performed relative to standard curves prepared in receiver fluid with no exposure to peptide.
(§4) Calcitonin and Insulin in receiver fluid samples (following a 1000× dilution in PBS) were detected using established protocols of commercial sandwich ELISA kits (Abcam, Waltham, MA, and Thermo Fisher Scientific, Waltham, MA). TMB chromogen absorbance was converted to peptide concentration relative to a standard curve prepared using provided standards in ELISA buffer. […]

[3] = tested on: porcine ex vivo intestinal tissue
Description: as §1, §2, §3, §4

| Compound | CMC [1] | CMC (mg/mL) [1] | lowest concentration for which a maximal effect on vancomycin permeability was observed [2] | enhancement in intestinal permeability of the peptides [3] |
| --- | --- | --- | --- | --- |
| C[C@H](CCC(=O)[O-])[C@H]1CC[C@H]2[C@@H]3[C@H](O)C[C@@H]4C[C@H](O)CC[C@]4(C)[C@H]3CC[C@]12C.[Na+] [CDCA, sodium chenodeoxycholate] | 4 mM | 1.6 mg/ mL mg/mL |  |  |
| C[C@H](CCC(=O)[O-])[C@H]1CC[C@H]2[C@@H]3[C@H](O)C[C@@H]4C[C@H](O)CC[C@]4(C)[C@H]3C[C@H](O)[C@]12C.[Na+] [CHA, sodium cholate] | 11 mM | 4.5 mg/ mL mg/mL |  |  |
| C[C@H](CCC(=O)[O-])[C@H]1CC[C@H]2[C@@H]3CC[C@@H]4C[C@H](O)CC[C@]4(C)[C@H]3C[C@H](O)[C@]12C.[Na+] [DCA, sodium deoxycholate] | 5 mM | 2.0 mg/ ml mg/mL |  |  |
| C[C@H](CCC(=O)NCC(=O)[O-])[C@H]1CC[C@H]2[C@@H]3[C@H](O)C[C@@H]4C[C@H](O)CC[C@]4(C)[C@H]3C[C@H](O)[C@]12C.[Na+] [GCA, sodium glycocholate] | 11 mM | 5.4 mg/ mL mg/mL | 128 mg/mL |  |
| C[C@H](CCC(=O)NCC(=O)[O-])[C@H]1CC[C@H]2[C@@H]3[C@H](O)C[C@@H]4C[C@H](O)CC[C@]4(C)[C@H]3CC[C@]12C.[Na+] [GCDCA, sodium glycochenodeoxycholate] | 2 mM | 0.9 mg/ mL mg/mL |  |  |
| C[C@H](CCC(=O)NCC(=O)[O-])[C@H]1CC[C@H]2[C@@H]3CC[C@@H]4C[C@H](O)CC[C@]4(C)[C@H]3C[C@H](O)[C@]12C.[Na+] [GDCA, sodium glycodeoxycholate] | 2 mM | 0.9 mg/ mL mg/mL |  |  |
| C[C@H](CCC(=O)NCCS(=O)(=O)[O-])[C@H]1CC[C@H]2[C@@H]3[C@H](O)C[C@@H]4C[C@H](O)CC[C@]4(C)[C@H]3C[C@H](O)[C@]12C.[Na+] [STC, sodium taurocholate] | 6 mM | 3.2 mg/ ml mg/mL |  | greatest enhancement in intestinal permeability |
| C[C@H](CCC(=O)NCCS(=O)(=O)[O-])[C@H]1CC[C@H]2[C@@H]3[C@H](O)C[C@@H]4C[C@H](O)CC[C@]4(C)[C@H]3CC[C@]12C.[Na+] [TCDCA, sodium taurochenodeoxycholate] | 4 mM | 2.1 mg/ mL mg/mL |  |  |
| C[C@H](CCC(=O)NCCS(=O)(=O)[O-])[C@H]1CC[C@H]2[C@@H]3CC[C@@H]4C[C@H](O)CC[C@]4(C)[C@H]3C[C@H](O)[C@]12C.[Na+] [TDCA, sodium taurodeoxycholate] | 3 mM | 1.6 mg/ mL mg/mL |  |  |
